The values below come from patent US9296759B2, “Amino-oxazine and amino-dihydrothiazine compounds as beta-secretase modulators and methods of use” (AMGEN INC., priority 2011, dated 2016).

For test [1], the system named is Aβ40 in conditioned medium of cells stably expressing Amyloid Precursor Protein (APP). Nature of the test: In vitro BACE cell-based assay (HEK cell assay, Aβ40 sandwich ELISA). As to conditions: Homo sapiens, HEK293; average IC50, Aβ40, 24 h incubation. The method, then:
In Vitro BACE Cell-Based Assay
The cell-based assay measures inhibition or reduction of Aβ40 in conditioned medium of test compound treated cells expressing amyloid precursor protein.
Cells stably expressing Amyloid Precursor Protein (APP) were plated at a density of 40K cells/well in 96 well plates (Costar). The cells were cultivated for 24 hours at 37° C. and 5% CO2 in DMEM supplemented with 10% FBS. The test compounds were then added to cells in 10-point dose response concentrations with the starting concentration being either 100 μM or 10 μM. The compounds were diluted from stock solutions in DMSO and the final DMSO concentration of the test compounds on cells was 0.1%. After 24 h of incubation with the test compounds the supernatant conditioned media was collected and the Aβ 40 levels were determined using a sandwich ELISA. The IC50 of the compound was calculated from the percent of control or percent inhibition of Aβ 40 as a function of the concentration of the test compound.
The sandwich ELISA to detect Aβ 40 was performed in 96 well microtiter plates, which were pre-treated with goat anti-rabbit IgG (Pierce). The capture and detecting antibody pair that were used to detect Aβ 40 from cell supernatants were affinity purified pAb40 (Biosource) and biotinylated 6E10 (Signet Labs Inc.), respectively. The optimal concentration for the pAb40 antibody was 3 μg/ml in Superblock/TBS (Pierce) that was supplemented with 0.05% Tween 20 (Sigma).
Cellular supernatants were incubated with the capture antibody for 3 h at 4° C., followed by 3 wash steps in TBS-tween (0.05%). The detecting antibody incubation was for 2 h at 4° C., again followed by the wash steps as described previously. The final readout of the ELISA is Time-Resolved Fluorescence (counts per minute) using Delfia reagents Streptavidin-Europium and Enhancement solutions (Perkin Elmer) and the Victor 2 multilabel counter (Perkin Elmer).

The target of test [2] is Cathepsin D (Homo sapiens (Human), UniProt P07339). Nature of the test: In vitro enzymatic Cat D (Cathepsin D) FRET assay. Type of test: biochemical. The conditions noted are these: average IC50. The procedure:
In Vitro Enzymatic Cat D (Cathepsin D) FRET (Fluorescence Resonance Energy Transfer) Assay
Recombinant CathepsinD was expressed in CHO cells. The assay buffer for CathepsinD is 0.05 M citrate pH 3.5, 10% DMSO final, 5 mM CHAPS. […] The assays are effectively started by the addition of different FRET substrates (20 nM for CathepsinD) and the combination is incubated for one hour. The FRET assay is terminated with by addition of Tris buffer, which raises the pH to neutrality, and the fluorescence is determined. The FRET substrate is a peptide with commercially available fluorophore and quencher, on opposite sides of the BACE cleavage site. […] Proteolytic cleavage of the FRET substrate releases quenching of fluorescence (CathepsinD excitation 500 nm and emission 580 nm).

For test [3], the target named is BACE 1 (beta secretase enzyme) (Homo sapiens (Human), UniProt P56817). Nature of the test: In vitro enzymatic BACE FRET assay. The format is biochemical. The conditions noted are these: average IC50. The procedure: In Vitro Enzymatic BACE FRET (Fluorescence Resonance Energy Transfer) Assay
The assay buffer used in this screen is 0.05 M acetate, pH 4.2, 10% DMSO final, 100 uM genapol (which is a nonionic detergent, below its Critical Micelle Concentration). […] This assay is effectively started by the addition of FRET substrate (50 nM) and the combination is incubated for one hour. The FRET assay is terminated with by addition of Tris buffer, which raises the pH to neutrality, and the fluorescence is determined. The FRET substrate is a peptide with commercially available fluorophore and quencher, on opposite sides of the BACE cleavage site. Proteolytic cleavage of the FRET substrate releases quenching of fluorescence (excitation […] and […]).

Sequence of BACE 1 (beta secretase enzyme) (P56817 46-501): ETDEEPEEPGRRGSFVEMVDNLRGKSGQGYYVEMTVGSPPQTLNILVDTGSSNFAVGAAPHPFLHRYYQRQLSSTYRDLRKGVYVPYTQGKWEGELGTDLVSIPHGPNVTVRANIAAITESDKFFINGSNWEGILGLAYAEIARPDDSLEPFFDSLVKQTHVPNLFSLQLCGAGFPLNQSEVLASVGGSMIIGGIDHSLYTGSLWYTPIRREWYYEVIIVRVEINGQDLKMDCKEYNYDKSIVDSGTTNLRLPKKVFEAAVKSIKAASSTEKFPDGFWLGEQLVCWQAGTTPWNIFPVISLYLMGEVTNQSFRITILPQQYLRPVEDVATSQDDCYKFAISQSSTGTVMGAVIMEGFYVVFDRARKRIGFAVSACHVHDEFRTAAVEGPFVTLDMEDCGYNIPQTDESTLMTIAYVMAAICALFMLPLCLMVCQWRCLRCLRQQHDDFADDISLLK
Sequence of Cathepsin D (P07339 65-412, species assumed): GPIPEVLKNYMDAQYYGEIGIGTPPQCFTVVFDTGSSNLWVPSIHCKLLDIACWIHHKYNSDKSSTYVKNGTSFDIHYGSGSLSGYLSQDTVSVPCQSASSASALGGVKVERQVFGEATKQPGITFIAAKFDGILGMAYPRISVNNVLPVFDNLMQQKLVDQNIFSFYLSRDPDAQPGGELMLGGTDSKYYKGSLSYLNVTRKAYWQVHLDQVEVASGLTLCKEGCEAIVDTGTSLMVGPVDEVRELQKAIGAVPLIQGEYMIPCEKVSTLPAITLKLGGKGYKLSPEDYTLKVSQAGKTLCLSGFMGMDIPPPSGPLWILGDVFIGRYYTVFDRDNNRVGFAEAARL

On to `N#Cc1ccc(C(=O)Nc2ccc3c(c2)[C@@]2(CCOC(N)=N2)c2cc(-c4cncc(F)c4)nc(F)c2O3)nc1` [Example 69, N-((5S)-2′-amino-1-fluoro-3-(5-fluoro-3-pyridinyl)-5′,6′-dihydrospiro[chromeno[2,3-c]pyridine-5,4′-[1,3]oxazin]-7-yl)-5-cyano-2-pyridinecarboxamide], for which the IC50 in test [1] was found to be 0.082 nM; in test [2] it was 133000 nM; in test [3], 0.6 nM.
In the same order, the values of `COc1cc(F)c2c(c1)[C@]1(CCOC(N)=N1)c1cc(NC(=O)c3ccc(C#N)cn3)ccc1O2` [Example 74, N-((4S)-2-amino-5′-fluoro-7′-methoxy-5,6-dihydrospiro[1,3-oxazine-4,9′-xanthen]-2′-yl)-5-cyano-2-pyridinecarboxamide] are 4.6 nM, 147000 nM and 10.8 nM.
In the same order, the values of `COc1cc(F)c2c(c1)[C@]1(CCOC(N)=N1)c1cc(NC(=O)c3ccc(Cl)cc3F)ccc1O2` [Example 76, N-((4S)-2-amino-5′-fluoro-7′-methoxy-5,6-dihydrospiro[1,3-oxazine-4,9′-xanthen]-2′-yl)-4-chloro-2-fluorobenzamide] are 206 nM, 400000 nM and 181 nM.
Take `NC1=N[C@@]2(CCO1)c1cc(NC(=O)c3ccc(Cl)cn3)ccc1Oc1cnc(Cl)cc12` [Example 79, N-((5S)-2′-amino-3-chloro-5′,6′-dihydrospiro[chromeno[2,3-c]pyridine-5,4′-[1,3]oxazin]-7-yl)-5-chloro-2-pyridinecarboxamide]: the IC50 in test [1] came to 9.9 nM; in test [2], 400000 nM; in test [3] it was 38.6 nM.
With `NC1=N[C@@]2(CCO1)c1cc(NC(=O)c3ccc(F)cn3)ccc1Oc1c2cc(C2=CCCOC2)nc1F` [Example 83, N-((5S)-2′-amino-3-(5,6-dihydro-2H-pyran-3-yl)-1-fluoro-5′,6′-dihydrospiro[chromeno[2,3-c]pyridine-5,4′-[1,3]oxazin]-7-yl)-5-fluoro-2-pyridinecarboxamide], the IC50 was 0.4 nM in test [1], 255000 nM in test [2] and 9.3 nM in test [3].
For the molecule `COc1cnc(C(=O)Nc2ccc3c(c2)[C@@]2(CCOC(N)=N2)c2cc(C#CC(C)(C)C)ncc2O3)cn1` [Example 86, N-((5S)-2′-amino-3-(3,3-dimethyl-1-butyn-1-yl)-5′,6′-dihydrospiro[chromeno[2,3-c]pyridine-5,4′-[1,3]oxazin]-7-yl)-5-methoxy-2-pyrazinecarboxamide], the IC50 in test [1] stood at 1.2 nM; in test [2], 452000 nM; in test [3], 12 nM.
In the same order, the values of `COc1cnc(C(=O)Nc2ccc3c(c2)[C@@]2(CCOC(N)=N2)c2cc(-c4ccnc(F)c4)ncc2O3)cn1` [Example 93, N-((5S)-2′-amino-3-(2-fluoro-4-pyridinyl)-5′,6′-dihydrospiro[chromeno[2,3-c]pyridine-5,4′-[1,3]oxazin]-7-yl)-5-methoxy-2-pyrazinecarboxamide] are 0.5 nM, 400000 nM and 2.9 nM.
For the molecule `NC1=N[C@@]2(CCO1)c1cc(NC(=O)c3ccc(Cl)cn3)ccc1Oc1cnc(-c3ccnc(F)c3)cc12` [Example 94, N-((5S)-2′-amino-3-(2-fluoro-4-pyridinyl)-5′,6′-dihydrospiro[chromeno[2,3-c]pyridine-5,4′-[1,3]oxazin]-7-yl)-5-chloro-2-pyridinecarboxamide], the IC50 was 0.7 nM in test [1], 400000 nM in test [2] and 1.6 nM in test [3].
Taken in the same sequence, the figures for `N#Cc1ccc(C(=O)Nc2ccc3c(c2)[C@@]2(CCOC(N)=N2)c2cc(-c4ccnc(F)c4)nc(F)c2O3)nc1` [Example 100, N-((5S)-2′-amino-1-fluoro-3-(2-fluoro-4-pyridinyl)-5′,6′-dihydrospiro[chromeno[2,3-c]pyridine-5,4′-[1,3]oxazin]-7-yl)-5-cyano-2-pyridinecarboxamide] were 0.4 nM, 518000 nM and 0.6 nM.
Taken in the same sequence, the figures for `COc1cnc(C(=O)Nc2ccc3c(c2)[C@@]2(CCSC(N)=N2)c2cc(C4=CCOCC4)ncc2O3)cn1` [Example 103, N-((5S)-2′-amino-3-(3,6-dihydro-2H-pyran-4-yl)-5′,6′-dihydrospiro[chromeno[2,3-c]pyridine-5,4′-[1,3]thiazin]-7-yl)-5-methoxy-2-pyrazinecarboxamide] were 1.1 nM, 400000 nM and 1.7 nM.
Taken in the same sequence, the figures for `COc1ccc(C(=O)Nc2ccc3c(c2)[C@@]2(CCSC(N)=N2)c2cc(O)cc(F)c2O3)nc1` [Example 105, N-((4S)-2-amino-5′-fluoro-7′-hydroxy-5,6-dihydrospiro[1,3-thiazine-4,9′-xanthen]-2′-yl)-5-methoxy-2-pyridinecarboxamide] were 82.3 nM, 225000 nM and 29.4 nM.
`COc1ccc(C(=O)Nc2ccc3c(c2)[C@@]2(CCSC(N)=N2)c2cc(N4CCOCC4)cc(F)c2O3)nc1` [Example 107, N-((4S)-2-amino-5′-fluoro-7′-(4-morpholinyl)-5,6-dihydrospiro[1,3-thiazine-4,9′-xanthen]-2′-yl)-5-methoxy-2-pyridinecarboxamide]: the IC50 in test [1] was determined as 8.7 nM; in test [2] it was 326000 nM; in test [3] it was 7.8 nM.
Taken in the same sequence, the figures for `COc1cnc(C(=O)Nc2ccc3c(c2)[C@@]2(CCSC(N)=N2)c2cc(O)cc(F)c2O3)cn1` [Example 109, N-((4S)-2-amino-5′-fluoro-7′-hydroxy-5,6-dihydrospiro[1,3-thiazine-4,9′-xanthen]-2′-yl)-5-methoxy-2-pyrazinecarboxamide] were 64.6 nM, 400000 nM and 28.4 nM.
In the same order, the values of `COc1cnc(C(=O)Nc2ccc3c(c2)[C@@]2(CCSC(N)=N2)c2cc(N4CCOCC4)cc(F)c2O3)cn1` [Example 110, N-((4S)-2-amino-5′-fluoro-7′-(4-morpholinyl)-5,6-dihydrospiro[1,3-thiazine-4,9′-xanthen]-2′-yl)-5-methoxy-2-pyrazinecarboxamide] are 7.7 nM, 229000 nM and 15.3 nM.
Taken in the same sequence, the figures for `COc1ccc(C(=O)Nc2ccc3c(c2)[C@@]2(CCSC(N)=N2)c2cc(-c4cncc(F)c4)nc(F)c2O3)nc1` [Example 113, N-((5S)-2′-amino-1-fluoro-3-(5-fluoro-3-pyridinyl)-5′,6′-dihydrospiro[chromeno[2,3-c]pyridine-5,4′-[1,3]thiazin]-7-yl)-5-methoxy-2-pyridinecarboxamide] were 1.8 nM, 120000 nM and 1.1 nM.
Turning to `COc1cnc(C(=O)Nc2ccc3c(c2)[C@@]2(CCSC(N)=N2)c2cc(-c4ccnc(F)c4)nc(F)c2O3)cn1` [Example 114, N-((5S)-2′-amino-1-fluoro-3-(2-fluoro-4-pyridinyl)-5′,6′-dihydrospiro[chromeno[2,3-c]pyridine-5,4′-[1,3]thiazin]-7-yl)-5-methoxy-2-pyrazinecarboxamide], the IC50 was determined as 3.8 nM in test [1], 400000 nM in test [2] and 3.1 nM in test [3].
In the same order, the values of `COc1ccc(C(=O)Nc2ccc3c(c2)[C@@]2(CCSC(N)=N2)c2cc(-c4ccnc(F)c4)nc(F)c2O3)nc1` [Example 115, N-((5S)-2′-amino-1-fluoro-3-(2-fluoro-4-pyridinyl)-5′,6′-dihydrospiro[chromeno[2,3-c]pyridine-5,4′-[1,3]thiazin]-7-yl)-5-methoxy-2-pyridinecarboxamide] are 2.2 nM, 162000 nM and 0.4 nM.

The IC50 is the concentration that inhibits the measured activity by half.
